Reference: patent US11827663B2, “Use of UAP inhibitors to inhibit flux through the hexosamine biosynthetic pathway” (The Johns Hopkins University, priority 2014, dated 2023)
Where two headings read alike, the source gives them in different places.

What was measured:
Type in all cases: cell-based
[1] = system: primary glioblastoma line GS1049; assay: Cell count of primary glioblastoma line GS1049; conditions: 48 h incubation, cell counting normalized to untreated controls; read-out: Estimated IC50 values, GS 1049
Protocol: FIG. 7A depicts the results of primary glioblastoma lines 612 and GS1049 after incubation for 48 h with Ac4Glc2Bz followed by cell counting and normalization to untreated controls. The data is log transformed to easily determine IC50 values. FIG. 7B and FIG. 7C depict the measurement of proliferation of the primary glioblastoma lines after 48 h incubation with Ac4Glc2Bz using a MTT assay.
(§1) Cells were incubated at a range of concentrations of the UAP inhibitors (typically at 0, 10, 25, 50, 100, and 150 μM) and the number of cells were quantified, typically by automated counting (e.g., with a Coulter Counter Z2 instrument) after 1, 2, 3, or 5 days of exposure.

microRNA = assay: qRT-PCR analysis of microRNA expression; conditions: SW1990 and 612 cells, 48 h
Protocol: FIGS. 20A-20C show qRT-PCR analysis of microRNA expression following treatment with different concentrations of Ac4Glc2Bz, for SW1990 cells of […] (FIG. 20A); for 612 cells of 191b-5p (FIG. 20B); and for SW1990 cells of 181p-5p (FIG. 20C).
The microRNAs analyzed were chosen because they regulated different aspects of cancer cell glycosylation. 3×10^5 cells per well in a 6-well plate were seeded along with the concentrations of Ac4Glc2Bz indicated. Glioblastoma cells were placed on 6-well plates precoated with laminin (1 ug/cm^2). After 48 h, miRNA was extracted using a miRNeasy kit (Qiagen), followed by cDNA synthesis and qrt-PCR using miRCURY LNA™ Universal RT microRNA PCR Starter Kit (Exiqon).

PANC-1 cells = assay: Cell count / cell proliferation assay in PANC-1 cells; conditions: Homo sapiens
Protocol: (§2) FIGS. 5A and 5B show the results of cell toxicity experiments that were conducted on SW1990 and PANC-1 cells with the analogs indicated. Cells were counted after incubation with each analog for 48 hours. Cell counts were then normalized to controls, data was log transformed, and IC50 values were calculated. […]
as §1

SW1990 cells = assay: Cell count / cell proliferation assay in SW1990 cells; conditions: for IC50: Homo sapiens
Protocol: FIG. 3 depicts the result of cell count assays after two days of incubation with an exemplary compound, Ac4Glc2Bz. The cells treated with the compound are, respectively, SW1990 and PANC-1, which are pancreatic cancer cell lines. Meanwhile, control samples were treated with solvent vehicle of 2.5 μL DMSO per 1 mL of medium.
as §2, §1

[2] = system: UDP-Glc/GalNAc (HexNAc), product of UAP1/2; assay: Targeted metabolomics, LC-MS/MS of UDP-HexNAc in 612 cells
Protocol: FIGS. 16A-16B show exemplary targeted metabolomics results from primary glioblastoma cells. […] (n=3, with error bars representing SEM;* indicates p<0.05)
In FIGS. 16A-16B, representative targeted metabolomics results from primary glioblastoma cells were quantitated using LC-MS/MS traces. For example, the 612 cells were treated with 50 μM or 100 μM of Ac4Glc2Bz or non-treated (control). Afterwards, the cell extracts were obtained using Bligh-Dyer extraction and the extracts were analyzed using LC-MS/MS. Twelve 150-mm tissue culture plates were coated with lamin (1 ug/cm^2) in PBS for 24 h. 5×10^6 612 cells were seed onto each plate in 20 mL of media for condition tested: DMSO vehicle control (2 plates) (matched to the volume of vehicle used for the 100 μM condition), 50 μM (4 plates), 100 μM (6 plates). Ater 48 h, the plates were cooled for 10 minutes on ice followed by aspiration of the media. The plates were then tilted at 30° for 30 seconds and any remaining media was removed. Plates were washed twice with 10 mL of ice cold PBS (calcium and magnesium ion free). Next, the plates were covered and chilled with dry ice for 10 minutes to completely freeze all of the cells. While freezing the cells, a solution of methanol:H2O (2:0.8) was made and chilled in an isopropyl alcohol-dry ice bath. The plates were transferred to wet ice and 500 μL of the MeOH:H2O solution was added to the plates. Cells were scraped and the were transferred to a 15 mL tube. 500 μL more of the methanol:H2O solution was added again, and any remaining cells were scraped off the plates and were transferred to the 15 mL tubes. Samples, while remaining cold, were sonicated 2-5 times for 1 s and 1 part of chloroform was added to produce a ration of 1:2:0.8 (CHCl3:MeOH:H2O). Samples were briefly vortexed while still cold and 1 part of H2O was added followed by vortexing. […] DNA quantity from the interphase disc was determined using a fluorescent assay (SIGMA). […] The aqeuous layers were combined after normazling reconstitutions to the quantities of DNA obtained for each condition tested. […]

- IC50 (PANC-1 cells; PANC-1, 48 h, cell count after two days of incubation, FIG. 3, read-out: IC50 of reduction of cell numbers, PANC-1): ~50 µM
- IC50 (PANC-1 cells; PANC-1, FIG. 5B, read-out: IC50 of PANC-1 cell proliferation): ~45 µM
- IC50 (SW1990 cells; SW1990, 48 h, cell count after two days of incubation, FIG. 3, read-out: IC50 of reduction of cell numbers, SW1990): ~50 µM
SMILES: CC(=O)OCC1OC(OC(C)=O)[C@@H](NC(=O)c2ccccc2)[C@@H](OC(C)=O)[C@@H]1OC(C)=O (some centres unmarked) [Ac4Glc2Bz]
- IC50 [1]: 88.8 ± 1.8 µM
- microRNA expression (microRNA): could be modulated
- IC50 (PANC-1 cells; PANC-1, cells counted after 48 hours incubation, normalized to controls, read-out: Estimated IC50 values, PANC-1): 45.5 ± 1.2 µM
- IC50 (SW1990 cells; SW1990, cells counted after 48 hours incubation, normalized to controls, read-out: Estimated IC50 values, SW1990): 25.8 ± 1.5 µM
- effect on SW1990 cell numbers / proliferation (SW1990 cells; in words): lowest IC50 value
- LC-MS/MS peaks for UDP-HexNAc in treated cell extracts ([2]; 612 cells, 50 μM or 100 μM, 48 h): substantially lower
- reduction of quantitized amount of UDP-HexNAc, particularly UDP-GlcNAc, vs non-treated cell ([2]; 612 cells, 50 μM, 48 h): ~4 fold
- residual level of UDP-GlcNAc ([2]; printed as shown in FIGS. 18A-18B): about 25%
